Reference: patent publication US20190209501A1, “COMPOSITIONS AND METHODS OF USE OF BETA-HYDROXY-BETA-METHYLBUTYRATE (HMB) […] IN[…]” (Texas Tech University Office of Research Commercialization, priority 2018, published 2019)

Experiments:
[1] = Resistance training workout volume; format: in vivo, human; settings: for LB Volume ES (d) / LS Session Volume ES (d) / UB Session Volume ES (d) / UB Volume ES (d): effect size; for LB Volume Δ / LB Volume Δ (%) / LS Session Volume Δ / LS Session Volume Δ (%) / UB Session Volume Δ / UB Session Volume Δ (%) / UB Volume Δ / UB Volume Δ (%): first to second 4 weeks
Source text: All groups completed 8 weeks of supervised RT in conjunction with the assigned dietary and supplementation programs. Training took place within the research laboratories under direct supervision. RT sessions were completed on 3 nonconsecutive days each week (i.e. Mondays, Wednesdays and Fridays), and upper- and lower-body sessions were alternated (Table 1).
Participants were instructed to train to momentary muscular exhaustion for each set, and the load was adjusted as necessary to ensure compliance with the specified repetition range. The weights and repetitions completed for each set of each exercise were recorded to allow for calculation of RT volume. Sessions took place between 12:00 and 18:00. […] Following each RT session, participants from each group were provided with 25 g whey protein (Elite 100% Whey, Dymatize Enterprises, LLC, Dallas, Tex. USA).

[2] = Resting energy expenditure and substrate utilization (RQ) via indirect calorimetry; format: in vivo, human; settings: for RMR Δ / RMR Δ (%) / RQ Δ / RQ Δ (%): baseline to W 8; for RMR ES (d) / RQ ES (d): effect size
Method: REE and substrate utilization were assessed via indirect calorimetry (TrueOne 2400. ParvoMedics, Sandy, Utah, USA). Gas and flow calibrations were performed each morning according to manufacturer specifications, and the pre-assessment procedures of Compher et al. (34) were utilized. Participants were instructed to remain motionless but awake during the assessment, which took place in a climate-controlled room with the lights dimmed. The first five minutes of each test were discarded, and the assessment continued until there was a period of 5 consecutive minutes with a coefficient of variation (CV) for REE of ≤5%. The average CV for REE in the present study was 3.2±1.1% (mean±SD).

CC(C)(O)CC(=O)O [TRFHMB, β-hydroxy-β-methylbutyrate]
LB Volume ([1]; ITT, First 4 weeks): 50374 ± 4107 kg
LS Session Volume ([1]; ITT, First 4 weeks): 8734 ± 659 kg
UB Session Volume ([1]; ITT, First 4 weeks): 2722 ± 210 kg
UB Volume ([1]; ITT, First 4 weeks): 15715 ± 1317 kg
LB Volume ([1]; ITT, Second 4 weeks): 56873 ± 4655 kg
LS Session Volume ([1]; ITT, Second 4 weeks): 10978 ± 902 kg
UB Session Volume ([1]; ITT, Second 4 weeks): 3336 ± 215 kg
UB Volume ([1]; ITT, Second 4 weeks): 17437 ± 1298 kg
LB Volume ES (d) ([1]; ITT): 0.41
LS Session Volume ES (d) ([1]; ITT): 0.79
UB Session Volume ES (d) ([1]; ITT): 0.80
UB Volume ES (d) ([1]; ITT): 0.37
LB Volume Δ ([1]; ITT): 6499 kg
LB Volume Δ (%) ([1]; ITT): 13%
LS Session Volume Δ ([1]; ITT): 2244 kg
LS Session Volume Δ (%) ([1]; ITT): 26%
UB Session Volume Δ ([1]; ITT): 614 kg
UB Session Volume Δ (%) ([1]; ITT): 23%
UB Volume Δ ([1]; ITT): 1722 kg
UB Volume Δ (%) ([1]; ITT): 11%
LB Volume ([1]; PP, First 4 weeks): 54729 ± 5724 kg
LS Session Volume ([1]; PP, First 4 weeks): 9434 ± 944 kg
UB Session Volume ([1]; PP, First 4 weeks): 2869 ± 303 kg
UB Volume ([1]; PP, First 4 weeks): 16696 ± 1851 kg
LB Volume ([1]; PP, Second 4 weeks): 60345 ± 6263 kg
LS Session Volume ([1]; PP, Second 4 weeks): 11915 ± 1281 kg
UB Session Volume ([1]; PP, Second 4 weeks): 3463 ± 297 kg
UB Volume ([1]; PP, Second 4 weeks): 17923 ± 1749 kg
LB Volume ES (d) ([1]; PP): 0.34
LS Session Volume ES (d) ([1]; PP): 0.83
UB Session Volume ES (d) ([1]; PP): 0.75
UB Volume ES (d) ([1]; PP): 0.26
LB Volume Δ ([1]; PP): 5616 kg
LB Volume Δ (%) ([1]; PP): 10%
LS Session Volume Δ ([1]; PP): 2481 kg
LS Session Volume Δ (%) ([1]; PP): 26%
UB Session Volume Δ ([1]; PP): 594 kg
UB Session Volume Δ (%) ([1]; PP): 21%
UB Volume Δ ([1]; PP): 1227 kg
UB Volume Δ (%) ([1]; PP): 7%
RMR ([2]; ITT, Baseline): 1466 ± 48 kcal/day
RQ ([2]; ITT, Baseline): 0.82 ± 0.02 au
RMR ([2]; ITT, W 8): 1481 ± 44 kcal/day
RMR Δ ([2]; ITT): 15 kcal/day
RMR Δ (%) ([2]; ITT): 1%
RQ Δ ([2]; ITT): −0.03 au
RQ Δ (%) ([2]; ITT): −4%
RMR ES (d) ([2]; ITT): 0.09
RQ ES (d) ([2]; ITT): −0.42
RMR ([2]; PP, Baseline): 1472 ± 61 kcal/day
RQ ([2]; PP, Baseline): 0.81 ± 0.03 au
RMR ([2]; PP, W 8): 1519 ± 57 kcal/day
RQ ([2]; PP, W 8): 0.78 ± 0.02 au
RMR Δ ([2]; PP): 47 kcal/day
RMR Δ (%) ([2]; PP): 3%
RQ Δ ([2]; PP): −0.03 au
RQ Δ (%) ([2]; PP): −4%
RMR ES (d) ([2]; PP): 0.30
RQ ES (d) ([2]; PP): −0.44
Resting metabolic rate change ([2]; versus baseline): +47 kcal/d
Resting metabolic rate change (%) ([2]; versus baseline): 3%
